Some results are limits rather than exact numbers.

This experiment has as its target Isoform 3 of Cannabinoid receptor 1 (Human, UniProt P21554). The experiment is described as follows: Biochemical Assay. As for the experimental part:
hCB1/hCB1 b Gai Cyclic AMP (cAMP) Assays: Cells were seeded in a 384-well plate at an appropriate density from frozen cells. The cAMP assays were performed according to the manufacturer's protocol using MULTISCREEN™ TR-FRET cAMP 1.0 No Wash Assay Kit. Cells (hCB1 or hCB1 b) were pre-incubated with customer compounds for 30 minutes at rt followed by addition of EC80 CP55940 concentration and Forskolin. Cells were then incubated for 20 minutes at 37C. The reaction was terminated by sequentially adding sequentially adding MULTISCREEN™ Eu-labeled cAMP and MULTISCREEN™ 650-labeled anti-cAMP antibody in lysis buffer. The plate was then incubated at rt for 30 minutes before reading fluorescent emissions at 620 nm and 665 with excitation at 314 nm on FlexStation III (Molecular Devices).

Sequence of Isoform 3 of Cannabinoid receptor 1 (P21554 as listed by the source): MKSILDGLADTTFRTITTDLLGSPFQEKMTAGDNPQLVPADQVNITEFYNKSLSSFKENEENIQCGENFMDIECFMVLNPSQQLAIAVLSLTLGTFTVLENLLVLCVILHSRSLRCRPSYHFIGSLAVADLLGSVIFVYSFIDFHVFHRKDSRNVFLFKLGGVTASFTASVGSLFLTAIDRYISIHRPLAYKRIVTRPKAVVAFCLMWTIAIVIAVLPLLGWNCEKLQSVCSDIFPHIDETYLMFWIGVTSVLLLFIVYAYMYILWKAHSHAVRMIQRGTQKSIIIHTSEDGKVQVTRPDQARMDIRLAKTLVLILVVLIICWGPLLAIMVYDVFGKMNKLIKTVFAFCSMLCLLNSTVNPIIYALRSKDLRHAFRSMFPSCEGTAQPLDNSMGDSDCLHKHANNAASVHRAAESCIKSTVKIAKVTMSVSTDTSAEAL

The term IC50 denotes the midpoint of a concentration-inhibition curve. `C#Cc1cccc(S(=O)(=O)N=C(NCCS(N)(=O)=O)N2C[C@H](c3ccccc3)C(c3ccc(Cl)cc3)=N2)c1` [US20250248973, Compound 35] showed an IC50 of less than 100 nM.

Values taken from BindingDB's records for patent US20250248973 (Corbus Pharmaceuticals, 2025).
